Results on 19 molecules are retold here after US20170304195A1, “PHARMACEUTICAL FORMULATIONS FOR THE ORAL DELIVERY OF PEPTIDE OR PROTEIN DRUGS” (Cyprumed GmbH, priority 2014, published 2017).

Series [1] can be described thus: In vitro compatibility of absorption enhancers with zinc sulfate (Example 16). The note with it: absorption enhancer 10 mg/ml with desmopressin acetate and ZnSO4 5 mg/ml, in 2 ml aqua purificata, visual examination. The class given is physicochemical. As to the method: Solid dry powder mixtures of desmopressin acetate, zinc sulfate and different absorption enhancers were prepared and dissolved in 2 ml aqua purificata.

Series [2] in a line: pH of dissolved solid powder mixtures (Example 17). The class given is physicochemical. The note with it: lactose 50 mg, no buffer.
Series [3] can be described thus: Compatibility of absorption enhancers with Cu2+ and Cu+ salts (dissolution in aqueous medium). It counts as physicochemical. The note with it: absorption enhancer 10 mg/ml. The source says:
Various absorption enhancers were screened regarding their compatibility with the trace element copper in the two main oxidation states as Cu^2+ and Cu^+.

The nature of series [4]: Plasma liraglutide levels after mid-jejunum administration (Example 6, FIG. 1). The class given is in vivo, Sprague Dawley rats. As to the method:
FIG. 1: Plasma liraglutide levels after intestinal (mid-jejunum) administration of different liraglutide formulations to rats (see Example 6).
Administration into Mid-Jejunum in Rats:
The wound margins were released from the base.
Dosing was performed slowly.
Correctness of the application was checked.
2.4 mg/kg of the polypeptide liraglutide were dosed into the mid-jejunum of anesthetized Sprague Dawley rats in the presence of the zwitter-ionic absorption enhancer lauroyl carnitine chloride (“LCC”) (20 mg/ml) with and without the addition of (i) the trace element CuSO4 (1 mg/ml) and the reducing agent sodium ascorbate (40 mg/ml) or (ii) the trace element ZnSO4 (1 mg/ml) and the reducing agent glutathione (40 mg/ml). All formulations further comprised Na2HPO4 to result in a neutral pH between 7 to 8.

Series [5] in a line: Octreotide pharmacokinetics after s.c. or ileum administration (Example 9). It counts as in vivo, Sprague Dawley rats. The note with it: for AUC(0-t): read-out: AUC(0-90) (converted). As to the method:
TRIS buffer was used to generate a neutral pH.
The octreotide plasma concentrations were determined using a commercial octreotide kit (AB Biolabs, USA, cat. number CEK 0110-01).

The conditions of series [6]: background statement, unformulated drug; cited from earlier work.
Series [7] can be described thus: Vancomycin pharmacokinetics after i.v. or ileum administration (Example 5). The class given is in vivo, Sprague Dawley rats. The note with it: for AUC(0-t) / Cmax: anesthetized rats. As to the method:
The vancomycin plasma concentrations were determined on biochemical autoanalyser Hitachi 912 using commercial vancomycin kit VANC2 (Roche Diagnostics GmbH, Germany). The absolute bioavailability (F) was calculated using equation F (%)=(AUCileum/AUCi.v.)×(Dosei.v./Doseileum)×100.

A short description of series [8]: Human growth hormone formulation, pharmacokinetics after s.c. or ileum administration (Example 13). The class given is in vivo, Sprague Dawley rats. As to the method: The human growth hormone plasma concentrations were determined using commercial growth hormone sensitive human ELISA kit (Biovendor, EU, cat. number RMEE022).
The mark [9] stands for this setting: CuSO4 1 mg/ml, sodium ascorbate 10 mg/ml.
Where [10] appears, read: Sprague Dawley, rat, plasma, other: into distal small intestine (ileum), octreotide 0.92 mg/kg ileum (n = 8), lauroyl carnitine chloride 30 mg/ml, CuSO4 1 mg/ml, sodium ascorbate 30 mg/ml, TRIS 22.5 mg/ml.
Setting [11] is: Sprague Dawley, rat, plasma, sc, octreotide 1 mg/kg s.c., anesthetized rats (n = 3).
Setting [12] is: Cu(I)Cl 1 mg/ml, sodium ascorbate 10 mg/ml.
The mark [13] stands for this setting: copper (I) acetate 1 mg/ml, sodium ascorbate 10 mg/ml.
The mark [14] stands for this setting: Sprague Dawley, rat, plasma, iv, vancomycin 5 mg/kg i.v.
[15] abbreviates: Sprague Dawley, rat, plasma, vancomycin 20 mg/kg into ileum, lauroyl carnitine 50 mg/ml, CuSO4 1 mg/ml, sodium ascorbate 250 mg/ml.
Setting [16] is: s.c. 1 ml/kg, 0.2 mg/ml human growth hormone, anaesthetized rats.

Structures can show the parent of a compound that is named as a salt.

With `C[C@H](CCC(=O)O)[C@H]1CC[C@H]2[C@@H]3[C@H](O)C[C@@H]4C[C@H](O)CC[C@]4(C)[C@H]3C[C@H](O)[C@]12C` [Cholic acid], the “Dissolution in aqueous medium (2 ml)” value in series [1] is listed as “Precipitation”.

In the case of `NC(=O)CC[C@@H]1NC(=O)[C@H](Cc2ccccc2)NC(=O)[C@H](Cc2ccc(O)cc2)NC(=O)CCSSC[C@@H](C(=O)N2CCC[C@H]2C(=O)N[C@H](CCCN=C(N)N)C(=O)NCC(N)=O)NC(=O)[C@H](CC(N)=O)NC1=O` [Desmopressin, Desmopressin acetate], the “Dissolution pH in 5 ml Aqua purificata” value stood at 2.6 in series [2] (CuSO4 10 mg, citric acid 10 mg); 4.7 in series [2] (CuSO4 10 mg, no absorption enhancer); 2.7 in series [2] (ZnSO4 10 mg, citric acid 10 mg); 5.5 in series [2] (ZnSO4 10 mg, no absorption enhancer).

Consider `O=C(O)CN(CCN(CC(=O)O)CC(=O)O)CC(=O)O` [EDTA, ethylenediaminetetraacetic acid], for which the “Dissolution in aqueous medium (2 ml)” value in series [3] (setting [9]) and in series [1] was “Clear solution” throughout.

As for `CCCCCCCCCCCC(=O)OC(CC(=O)O)C[N+](C)(C)C.[Cl-]` (stereo not drawn) [Lauroyl carnitine HCl], the “Dissolution in aqueous medium (2 ml)” value in series [1] was “Clear solution”.

Take `CCCCCCCCCCCC(=O)OC(CC(=O)O)C[N+](C)(C)C.[Cl-]` (stereo not drawn) [Lauroyl carnitine]: the “Dissolution in aqueous medium (2 ml)” value in series [3] (CuSO4 1 mg/ml, glutathione 10 mg/ml) was “Clear solution”; in series [3] (setting [9]), “Clear solution”.

Turning to `CCCCCCCCCCCCCCCC(=O)N[C@@H](CCC(=O)NCCCC[C@H](NC(=O)[C@H](C)NC(=O)[C@H](C)NC(=O)[C@H](CCC(N)=O)NC(=O)CNC(=O)[C@H](CCC(=O)O)NC(=O)[C@H](CC(C)C)NC(=O)[C@H](Cc1ccc(O)cc1)NC(=O)[C@H](CO)NC(=O)[C@H](CO)NC(=O)[C@@H](NC(=O)[C@H](CC(=O)O)NC(=O)[C@H](CO)NC(=O)[C@@H](NC(=O)[C@H](Cc1ccccc1)NC(=O)[C@@H](NC(=O)CNC(=O)[C@H](CCC(=O)O)NC(=O)[C@H](C)NC(=O)[C@@H](N)Cc1cnc[nH]1)[C@@H](C)O)[C@@H](C)O)C(C)C)C(=O)N[C@@H](CCC(=O)O)C(=O)N[C@@H](Cc1ccccc1)C(=O)N[C@H](C(=O)N[C@@H](C)C(=O)N[C@@H](Cc1c[nH]c2ccccc12)C(=O)N[C@@H](CC(C)C)C(=O)N[C@H](C(=O)N[C@@H](CCCNC(=N)N)C(=O)NCC(=O)N[C@@H](CCCNC(=N)N)C(=O)NCC(=O)O)C(C)C)[C@@H](C)CC)C(=O)O` [Liraglutide, liraglutide], the “intestinal absorption of liraglutide (plasma levels, FIG. 1), in words” value in series [4] (LCC 20 mg/ml + CuSO4 1 mg/ml + sodium ascorbate 40 mg/ml, compared with LCC alone) was “substantially increased the intestinal absorption”. Moreover, the “liraglutide absorption (plasma levels, FIG. 1), in words” value in series [4] (LCC 20 mg/ml + ZnSO4 1 mg/ml + glutathione 40 mg/ml, compared with LCC alone and with the Cu2+ composition) is listed as “improved liraglutide absorption albeit less pronounced”.

As for `C[C@@H](O)[C@@H]1NC(=O)[C@H](CCCCN)NC(=O)[C@@H](Cc2c[nH]c3ccccc23)NC(=O)[C@H](Cc2ccccc2)NC(=O)[C@@H](NC(=O)[C@H](N)Cc2ccccc2)CSSC[C@@H](C(=O)N[C@H](CO)[C@@H](C)O)NC1=O` [Octreotide], in series [5] (setting [10]), the Cmax is 0.0258 ± 0.0142 µg/mL and the AUC(0-t) was 0.0251 µg·h/mL. In series [5] (setting [11]), the Cmax is 0.154 ± 0.0298 µg/mL and the AUC(0-t) was 0.167 µg·h/mL. The molecule also had a F rel in series [5] (Sprague Dawley, rat, plasma, octreotide 0.92 mg/kg ileum, lauroyl carnitine chloride 30 mg/ml, CuSO4 1 mg/ml, sodium ascorbate 30 mg/ml, TRIS 22.5 mg/ml, vs s.c.) of 16.3 ± 7.8%. For the same molecule, the F in series [5] (octreotide 1 mg/kg s.c. (reference)) is listed as 100 ± 18.3%. Further, the “bioavailability, in words” value in series [5] (octreotide formulation with copper(II) salt, sodium ascorbate, lauroyl carnitine chloride) is listed as “markedly increased bioavailability”. Also, the oral bioavailability entry in series [6] is reported as “less than 1%”.

As for `CCCCCCCCCC(=O)[O-].[Na+]` [Sodium caprate], the “Dissolution in aqueous medium (2 ml)” value in series [3] (setting [12]) was “Clear solution”; in series [3] (setting [9]), “Precipitation”; in series [3] (setting [13]) it was “Clear solution”; in series [1], “Precipitation”.

On to `CCCCCCCC(=O)[O-].[Na+]` [Sodium caprylate], for which the “Dissolution in aqueous medium (2 ml)” value is given as “Clear solution” in series [3] (setting [12]), “Precipitation” in series [3] (setting [9]), “Clear solution” in series [3] (setting [13]) and “Precipitation” in series [1].

On to `C[C@H](CCC(=O)[O-])[C@H]1CC[C@H]2[C@@H]3[C@H](O)C[C@@H]4C[C@H](O)CC[C@]4(C)[C@H]3C[C@H](O)[C@]12C.[Na+]` [Sodium cholate], for which, in series [1], the “Dissolution in aqueous medium (2 ml)” value is “Precipitation”.

`O=C([O-])CC(O)(CC(=O)[O-])C(=O)[O-].[Na+].[Na+].[Na+]` [Sodium citrate]: the “Dissolution in aqueous medium (2 ml)” value in series [3] (setting [9]) is given as “Clear solution”.

`CCCCCCCCCCCCOS(=O)(=O)[O-].[Na+]` [Sodium dodecyl sulfate]: the “Dissolution in aqueous medium (2 ml)” value in series [3] (setting [9]) and in series [1] was “Clear solution” each time.

Consider `O=C([O-])c1ccccc1O.[Na+]` [Sodium salicylate], for which the “Dissolution in aqueous medium (2 ml)” value in series [3] (setting [9]) is on record as “Clear solution”.

Regarding `CN[C@H](CC(C)C)C(=O)N[C@H]1C(=O)N[C@@H](CC(N)=O)C(=O)N[C@H]2C(=O)N[C@H]3C(=O)N[C@H](C(=O)N[C@H](C(=O)O)c4cc(O)cc(O)c4-c4cc3ccc4O)[C@H](O)c3ccc(c(Cl)c3)Oc3cc2cc(c3O[C@@H]2O[C@H](CO)[C@@H](O)[C@H](O)[C@H]2O[C@H]2C[C@](C)(N)[C@H](O)[C@H](C)O2)Oc2ccc(cc2Cl)[C@H]1O` [Vancomycin, Vancomycin hydrochloride], the AUC(0-t) is 11 µg·h/mL in series [7] (setting [14]) and 3 µg·h/mL in series [7] (setting [15]). Also, the Cmax in series [7] (setting [14]) stood at 8.8 ± 0.3 µg/mL; in series [7] (setting [15]), 2.4 ± 0.2 µg/mL. In addition, in series [7] (Sprague Dawley, rat, plasma, vancomycin 20 mg/kg into ileum, lauroyl carnitine 50 mg/ml, CuSO4 1 mg/ml, sodium ascorbate 250 mg/ml, vs i.v., read-out: F (absolute bioavailability)), the bioavailability turned out to be 8 ± 0.4%. In series [7] (vancomycin 5 mg/kg i.v. (reference)), this molecule registered an F of 100 ± 7%. For the same molecule, the “bioavailability in comparison with published F values after oral administration, in words” value in series [7] (vancomycin formulation with lauroyl carnitine, CuSO4, sodium ascorbate) was “increased markedly its bioavailability”. The oral bioavailability in series [6] is around 0.1%.

For `CCCCCCCCCCCCO[C@@H]1O[C@H](CO)[C@@H](O[C@H]2O[C@H](CO)[C@@H](O)[C@H](O)[C@H]2O)[C@H](O)[C@H]1O` [n-Dodecyl-beta-D-maltoside], the “Dissolution in aqueous medium (2 ml)” value in series [3] (setting [9]) and in series [1] was “Clear solution” throughout.

With `CCCCCCCCO[C@@H]1O[C@H](CO)[C@@H](O)[C@H](O)[C@H]1O` [n-Octyl-beta-D-glucopyranoside], the “Dissolution in aqueous medium (2 ml)” value in series [3] (setting [9]) and in series [1] was “Clear solution” in each case.

For Human growth hormone [hGH], in series [8] (setting [16]), the “AUC(0-t)” value came out at 7630 ± 471 ng·min/mL, the Cmax is 0.044 µg/mL and the Tmax is listed as 30 min. This molecule returned a F in series [8] (s.c. (reference)) of 100 ± 6%.

As for Methyl-beta-cyclodextrin, in series [3] (setting [9]), the “Dissolution in aqueous medium (2 ml)” value is listed as “Clear solution”.

For the molecule Sodium lauroyl sarcosinate, the “Dissolution in aqueous medium (2 ml)” value in series [3] (setting [9]) was “Precipitation”.

Usually Cmax stands for the highest concentration seen after dosing. One may read the bioavailability as dose-corrected exposure relative to a reference, in per cent. Broadly, the Tmax is the time at which the peak concentration occurs.
